{"source": "patent US20060270640A1", "about": "“Method of preventing, medicating, and/or treating hypocalcemia of domestic mammal” (Mercian Corporation, priority 2004, published 2006)", "key": {"[1]": {"assay": "Intravaginal 1,25-(OH)2D3 in raised cows: mineral (Ca, iP, Mg) concentrations in plasma (Example 2)", "type": "in vivo, cow", "procedure": "(§1) Hereinafter, the present invention will further be described with reference to Examples and Comparative Example. However, the present invention is not intended to be limited to them by any means. In the examples described below, a 1,25-(OH)2D3 concentration in plasma was determined using a radioimmunoassay kit (1,25-(OH)2D RIA kit, Immunodiagnostic Systems Limited, UK). The Ca concentrations, inorganic phosphorus (iP) concentrations, and magnesium (Mg) concentrations in plasma and urine were determined by orthocresolphthalein complexone (O-CPC), molybdenum (Mo), and xylidyl blue methods, respectively. A creatinine concentration in urine was determined by a Jaffe method. Calcium (Ca), inorganic phosphorus (iP), and magnesium (Mg) concentrations in urine were indicated in the ratios relative to creatinine (Cre) (Ca/Cre, iP/Cre, and Mg/Cre, respectively).\n(§2) For confirming the absorption in the vagina of 1,25-(OH)2D3 administered to the vaginal cavities of cows, biochemical changes of 1,25-(OH)2D3 and minerals in blood were observed after the intravaginal administration of 1,25-(OH)2D3 to cows.\n(§3) Six Holstein cows (3 to 6 months olds, 97 to 118 kg in body weights) that were clinically healthy were raised and domesticated for at least 1 week in the same fence by providing them with feed (1.56 kg of grass, 0.55 kg of formula feed, and 1.44 kg of alfalfahey cube in dried forms) having a daily mineral intake of 21 g of Ca, 13 g of P, and 4 g of Mg that satisfies requirements stipulated by NRC (National Research Council) on a daily basis and free water drinking.\n(§4) To each of five of the cows, 1,25-(OH)2D3 (crystal manufactured by Mercian Corporation dissolved in 99% ethanol to bring its concentration to 1 mg/mL and cryopreserved at −20° C. until just before use) was intravaginally administered at 1 μg per kg of body weight.\nIntravaginal administration was performed using a 14-gauge, 64 mm-long cannula with an indwelling needle for injection (Surflo, Terumo Co. Ltd., Tokyo) and a plastic pump (Top Plastic Syringe, Top Surgical Taiwan Corporation, Taiwan).\nTo the other cow, 3.0 mL of 99% ethanol was administered as a control.\nA heparinized blood sample was collected from a jugular vein immediately before administration (0 hour) and at 2, 6, 12, 24, 48, 72, and 96 hours after administration.\nThe biochemical value of blood was indicated as a means±standard deviation. For observing the effect of the intravaginal administration of 1,25-(OH)2D3, repeated measures analysis of variance was used. When the effect was significant, a statistical test was conducted by the Dunnett's multiple comparison between the value at 0 hour and each value after administration. The significant difference was set to P<0.05."}, "[2]": {"assay": "Intravaginal 1,25-(OH)2D3 in raised cows: 1,25-(OH)2D3 concentration in plasma, RIA (Example 2)", "type": "in vivo, cow", "procedure": "as §1, §2, §3, §4\nIntravaginal administration was performed using a 14-gauge, 64 mm-long cannula with an indwelling needle for injection (Surflo, Terumo Co. Ltd., Tokyo) and a plastic pump (Top Plastic Syringe, Top Surgical Taiwan Corporation, Taiwan). […]"}, "[3]": {"settings": "oral administration, high dose; cited from earlier work"}, "[4]": {"settings": "0 hour, intravaginal 1 μg/kg, n=5"}}, "data": [{"smiles": "C=C1/C(=C\\C=C2/CCC[C@]3(C)[C@@H]([C@H](C)CCCC(C)(C)O)CC[C@@H]23)C[C@@H](O)C[C@@H]1O", "note": "[1,25-(OH)2D3, 1,25-dihydroxyvitamin D3]", "values": [{"measurement": "Mg in plasma", "setting": "[1]; [4]", "result": "2.1 ± 0.1", "unit": "mg/dL"}, {"measurement": "iP in plasma", "setting": "[1]; [4]", "result": "7.3 ± 0.5", "unit": "mg/dL"}, {"measurement": "iP in plasma", "setting": "[1]; 6 hours after intravaginal 1 μg/kg, P<0.05 vs 0 hour", "result": "8.1 ± 0.8", "unit": "mg/dL"}, {"measurement": "iP in plasma", "setting": "[1]; 24 hours (start of 24 to 96 hours) after intravaginal 1 μg/kg, P<0.01", "result": "9.1 ± 0.7", "unit": "mg/dL"}, {"measurement": "Mg in plasma", "setting": "[1]; 24 hours after intravaginal 1 μg/kg, P<0.01 vs 0 hour", "result": "1.8 ± 0.1", "unit": "mg/dL"}, {"measurement": "Ca concentration in plasma, maximum value", "setting": "[1]; 24 hours after intravaginal 1 μg/kg, n=5, significantly (P<0.01) high at 12 to 72 hours", "result": "11.96 ± 0.7", "unit": "mg/dL"}, {"measurement": "Mg in plasma", "setting": "[1]; 48 hours after intravaginal 1 μg/kg, P<0.01 vs 0 hour", "result": "1.8 ± 0.1", "unit": "mg/dL"}, {"measurement": "iP in plasma", "setting": "[1]; 96 hours (end of 24 to 96 hours) after intravaginal 1 μg/kg, P<0.01", "result": "8.6 ± 0.6", "unit": "mg/dL"}, {"measurement": "Ca concentration in plasma", "setting": "[1]; before administration, intravaginal 1 μg/kg, n=5", "result": "10.4 ± 0.4", "unit": "mg/dL"}, {"measurement": "concentration at 6 h", "setting": "[2]; female, Holstein, bovine, plasma, other: intravaginal, 6 hours after intravaginal 1 μg/kg, n=5, p<0.01 vs 0 hour", "result": "1.97 ± 1.14", "unit": "ng/mL"}, {"measurement": "concentration at 0 h", "setting": "[2]; female, Holstein, bovine, plasma, other: intravaginal, before administration (0 hour), intravaginal 1 μg/kg, n=5 raised cows, mean±SD", "result": "0.0883 ± 0.0203", "unit": "ng/mL"}, {"measurement": "absorption from the vaginal wall of a cow", "setting": "[2]; intravaginal 1 μg/kg, sudden rise in plasma at 2 hours", "result": "confirmed"}, {"measurement": "proportional rise in the AUC in serum with an increase in a dose", "setting": "[3]", "result": "not observed"}]}]}
